Source: article PMC7071076, “Antibacterial Activity and Pharmacokinetic Profile of a Promising Antibacterial Agent: 22-(2-Amino-phenylsulfanyl)-22-Deoxypleuromutilin” (Molecules, 2020)
Values joined by “and” are separate entries in the source; they are usually repeats but may differ in a detail not shown here. Equal entries are not always repeated. Where two headings read alike, the source gives them in different places.

Assay: Pharmacokinetic study in mice
Assay type: in vivo
Conditions: for plasma concentration, individual mice: mice 1-8 in order
Experimental: Pharmacokinetic parameters of amphenmulin were measured according to previous reports with some modifications. Each group consisted of eight female SPF-ICR mice. Amphenmulin (1 mg/mL) was administered intravenously, intraperitoneally, and orally at a dose of 10 mg/kg, respectively. Formulation of amphenmulin was a filtered solution in 5% DMSO, 5% Tween-80, and 90% normal saline. Serial samples (each 0.2 mL) were collected from the ocular venous plexus and placed in a plastic centrifuge tube. The blood samples were placed at room temperature for 20 min and transferred to a 4 °C refrigerator for 12 h to promote blood coagulation. Then samples were centrifuged at 2000 r/min for 10 min to get serum. Serum samples were frozen at −20°C. 100 µL of samples was accurately absorbed and mixed with 100 µL of acetonitrile in a 1.5 mL centrifuge tube. The sample was mixed vigorously and centrifuged at 12,000 rpm for 10 min. The supernatant was transferred, filtered through a 0.22 μm cellulose membrane filter and used for LC-MS/MS analysis. Equipment and analysis conditions were shown in supplemental data. The pharmacokinetic parameters of amphenmulin were determined from the mean plasma concentration with noncompartmental analysis in WinNonlin 5.2 software (Pharsight, Mountain View, CA, USA). Data were shown as mean ± standard deviation (SD).

[1] = female, ICR, mouse, plasma, mice, 10 mg/kg, intravenous
[2] = female, ICR, mouse, plasma, mice, 10 mg/kg, oral

C=C[C@]1(C)C[C@@H](OC(=O)CSc2ccccc2N)[C@]2(C)[C@H](C)CC[C@]3(CCC(=O)[C@H]32)[C@@H](C)[C@@H]1O [Amphenmulin, 22-(2-amino-phenylsulfanyl)-22-deoxypleuromutilin]
concentration at 12 h (female, ICR, mouse, plasma, iv, 10 mg/kg, mice, intravenous 10 mg/kg, 12 h, n = 8, read-out: plasma concentration, mean ± S.D): 50 ± 10 ng/mL
concentration at 0.25 h (female, ICR, mouse, plasma, po, 10 mg/kg, mice, oral 10 mg/kg, 0.25 h, n = 8, read-out: plasma concentration, mean ± S.D): 90 ± 50 ng/mL
concentration at 0.5 h (female, ICR, mouse, plasma, po, 10 mg/kg, mice, oral 10 mg/kg, 0.5 h, n = 8, read-out: plasma concentration, mean ± S.D): 310 ± 110 ng/mL
concentration at 1 h (female, ICR, mouse, plasma, po, 10 mg/kg, mice, oral 10 mg/kg, 1 h, n = 8, read-out: plasma concentration, mean ± S.D): 490 ± 160 ng/mL
concentration at 2 h (female, ICR, mouse, plasma, po, 10 mg/kg, mice, oral 10 mg/kg, 2 h, n = 8, read-out: plasma concentration, mean ± S.D): 360 ± 210 ng/mL
concentration at 3 h (female, ICR, mouse, plasma, po, 10 mg/kg, mice, oral 10 mg/kg, 3 h, n = 8, read-out: plasma concentration, mean ± S.D): 220 ± 150 ng/mL
concentration at 4 h (female, ICR, mouse, plasma, po, 10 mg/kg, mice, oral 10 mg/kg, 4 h, n = 8, read-out: plasma concentration, mean ± S.D): 150 ± 80 ng/mL
concentration at 6 h (female, ICR, mouse, plasma, po, 10 mg/kg, mice, oral 10 mg/kg, 6 h, n = 8, read-out: plasma concentration, mean ± S.D): 80 ± 30 ng/mL
concentration at 8 h (female, ICR, mouse, plasma, po, 10 mg/kg, mice, oral 10 mg/kg, 8 h, n = 8, read-out: plasma concentration, mean ± S.D): 50 ± 20 ng/mL
concentration at 12 h (female, ICR, mouse, plasma, po, 10 mg/kg, mice, oral 10 mg/kg, 12 h, n = 8, read-out: plasma concentration, mean ± S.D): 20 ± 10 ng/mL
AUC(0-inf) [1]: 12200 ± 1350 ng·h/mL
MRT [1]: 2.57 ± 0.19 h
half-life [1]: 1.92 ± 0.28 h
Vd (female, ICR, mouse, plasma, mice, 10 mg/kg, intravenous, read-out: Vz): 2.17 ± 0.42 L/kg
AUC(0-inf) [2]: 1670 ± 660 ng·h/mL
Cmax [2]: 530 ± 180 ng/mL
MRT [2]: 4.01 ± 0.62 h
Tmax [2]: 1.37 ± 0.74 h
bioavailability [2]: 13.7%
half-life [2]: 2.91 ± 0.81 h
Vd/F (female, ICR, mouse, plasma, mice, 10 mg/kg, oral, read-out: Vz/F): 28.5 ± 9.01 L/kg
plasma concentration, individual mice (intraperitoneal 10 mg/kg, 0.083 h): 0.94 µg/mL and 0.70 µg/mL and 0.61 µg/mL and 0.48 µg/mL and 0.79 µg/mL and 1.48 µg/mL and 0.68 µg/mL and 1.14 µg/mL
plasma concentration, individual mice (intraperitoneal 10 mg/kg, 0.25 h): 0.98 µg/mL and 1.39 µg/mL and 1.10 µg/mL and 0.89 µg/mL and 1.15 µg/mL and 2.26 µg/mL and 1.20 µg/mL and 0.78 µg/mL
plasma concentration, individual mice (intraperitoneal 10 mg/kg, 0.5 h): 0.81 µg/mL and 1.39 µg/mL and 1.54 µg/mL and 0.58 µg/mL and 0.89 µg/mL and 1.48 µg/mL and 0.54 µg/mL and 0.61 µg/mL
plasma concentration, individual mice (intraperitoneal 10 mg/kg, 0.75 h): 0.42 µg/mL and 0.40 µg/mL
plasma concentration, individual mice (intravenous 10 mg/kg, 0.083 h, 10 mg/kg): 4.5 µg/mL and 3.97 µg/mL and 3.15 µg/mL and 4.2 µg/mL and 5.1 µg/mL and 3.25 µg/mL and 4.31 µg/mL
plasma concentration, individual mice (intravenous 10 mg/kg, 0.25 h, 10 mg/kg): 3.07 µg/mL and 3.57 µg/mL and 3.78 µg/mL and 4.44 µg/mL and 3.64 µg/mL and 4.65 µg/mL and 4.18 µg/mL
plasma concentration, individual mice (intravenous 10 mg/kg, 0.5 h, 10 mg/kg): 3.66 µg/mL and 3.82 µg/mL and 3.09 µg/mL and 3.18 µg/mL and 4.31 µg/mL and 3.98 µg/mL and 3.54 µg/mL
plasma concentration, individual mice (intravenous 10 mg/kg, 0.75 h, 10 mg/kg): 3.46 µg/mL and 4.22 µg/mL and 3.49 µg/mL and 2.98 µg/mL and 4.21 µg/mL and 3.48 µg/mL and 2.31 µg/mL
plasma concentration, individual mice (intravenous 10 mg/kg, 1 h, 10 mg/kg): 3.90 µg/mL and 3.62 µg/mL and 3.02 µg/mL and 2.02 µg/mL and 2.52 µg/mL and 2.95 µg/mL and 3.40 µg/mL and 4.09 µg/mL
plasma concentration, individual mice (intravenous 10 mg/kg, 2 h, 10 mg/kg): 1.56 µg/mL and 1.41 µg/mL and 2.31 µg/mL and 2.00 µg/mL and 2.56 µg/mL and 2.83 µg/mL and 3.14 µg/mL and 2.61 µg/mL
plasma concentration, individual mice (intravenous 10 mg/kg, 4 h, 10 mg/kg): 0.99 µg/mL and 1.32 µg/mL and 1.00 µg/mL and 1.10 µg/mL and 0.89 µg/mL and 0.79 µg/mL and 0.94 µg/mL
plasma concentration, individual mice (intravenous 10 mg/kg, 6 h, 10 mg/kg): 0.31 µg/mL and 0.43 µg/mL and 0.54 µg/mL and 0.52 µg/mL and 0.29 µg/mL and 0.34 µg/mL and 0.44 µg/mL
plasma concentration, individual mice (intravenous 10 mg/kg, 8 h, 10 mg/kg): 0.10 µg/mL and 0.16 µg/mL and 0.30 µg/mL and 0.24 µg/mL and 0.19 µg/mL and 0.12 µg/mL and 0.28 µg/mL and 0.32 µg/mL
plasma concentration, individual mice (intravenous 10 mg/kg, 12 h, 10 mg/kg): 0.03 µg/mL (2×) and 0.05 µg/mL (3×) and 0.08 µg/mL and 0.04 µg/mL and 0.06 µg/mL
CLβ/F (mice, 10 mg/kg, intraperitoneal): 68 ± 19 mL/min/kg
CLβ (mice, 10 mg/kg, intravenous): 13.7 ± 1.5 mL/min/kg
CLβ/F (mice, 10 mg/kg, oral): 105 ± 37.7 mL/min/kg
